From ChEMBL document CHEMBL2375252, “Novel indoline-2,3-dione derivatives as inhibitors of aminopeptidase N (APN)” (Bioorg Med Chem, 2013)

Experiments:
[1] = target: Histone deacetylase 1/3/5/8 (Homo sapiens, UniProt Q13547+O15379+Q9UQL6+Q9BY41); test: Inhibition of HDAC1/3/5/8 in human HeLa cell extract using Boc-Lys-(acetyl)-AMC as substrate incubated for 5 mins prior to substrate addition measured after 30 mins by fluorometric analysis; format: protein assay
Aminopeptidase N [2] = target: T1, Aminopeptidase N (Sus scrofa, UniProt P15145); test: Inhibition of pig kidney microsome aminopeptidase-N using L-leu-p-nitroanilide as substrate incubated for 5 mins prior to substrate addition measured after 30 mins by spectrophotometric analysis
T1 sequence (P15145 whole entry): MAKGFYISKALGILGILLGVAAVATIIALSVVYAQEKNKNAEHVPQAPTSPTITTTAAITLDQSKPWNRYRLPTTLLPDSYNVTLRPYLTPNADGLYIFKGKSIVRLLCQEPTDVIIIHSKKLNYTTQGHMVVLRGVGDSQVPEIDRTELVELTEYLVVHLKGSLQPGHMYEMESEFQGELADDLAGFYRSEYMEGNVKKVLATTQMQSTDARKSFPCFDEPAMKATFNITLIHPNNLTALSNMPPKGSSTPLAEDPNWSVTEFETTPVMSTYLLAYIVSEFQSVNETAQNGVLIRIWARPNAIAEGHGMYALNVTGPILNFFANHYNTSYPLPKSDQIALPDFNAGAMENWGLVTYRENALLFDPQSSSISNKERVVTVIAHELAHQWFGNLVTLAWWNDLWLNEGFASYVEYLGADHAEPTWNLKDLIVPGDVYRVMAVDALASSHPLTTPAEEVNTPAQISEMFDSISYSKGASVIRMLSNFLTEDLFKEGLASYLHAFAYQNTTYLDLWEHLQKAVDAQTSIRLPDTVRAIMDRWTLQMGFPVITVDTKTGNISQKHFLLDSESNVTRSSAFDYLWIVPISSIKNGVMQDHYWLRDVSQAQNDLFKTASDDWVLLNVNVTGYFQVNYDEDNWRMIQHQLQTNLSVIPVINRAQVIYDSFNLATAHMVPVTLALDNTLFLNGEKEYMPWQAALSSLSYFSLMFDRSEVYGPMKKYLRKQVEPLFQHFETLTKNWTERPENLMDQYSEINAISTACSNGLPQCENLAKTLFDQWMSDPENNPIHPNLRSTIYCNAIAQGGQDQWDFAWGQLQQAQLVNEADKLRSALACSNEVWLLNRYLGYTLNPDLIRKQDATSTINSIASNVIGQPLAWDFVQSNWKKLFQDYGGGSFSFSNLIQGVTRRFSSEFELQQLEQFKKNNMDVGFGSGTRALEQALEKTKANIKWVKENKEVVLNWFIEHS

[3] = Cytotoxicity against human ES2 cells after 48 hrs by MTT assay; details: ES-2, 48 h
Aminopeptidase N [4] = target: Aminopeptidase N (Homo sapiens, UniProt P15144); test: Inhibition of aminopeptidase-N in human ES2 cells using L-leu-p-nitroanilide as substrate incubated for 5 mins prior to substrate addition measured after 30 mins by spectrophotometric analysis; format: cell-based
Sequence of Aminopeptidase N (Homo sapiens, UniProt P15144) (P15144 whole entry): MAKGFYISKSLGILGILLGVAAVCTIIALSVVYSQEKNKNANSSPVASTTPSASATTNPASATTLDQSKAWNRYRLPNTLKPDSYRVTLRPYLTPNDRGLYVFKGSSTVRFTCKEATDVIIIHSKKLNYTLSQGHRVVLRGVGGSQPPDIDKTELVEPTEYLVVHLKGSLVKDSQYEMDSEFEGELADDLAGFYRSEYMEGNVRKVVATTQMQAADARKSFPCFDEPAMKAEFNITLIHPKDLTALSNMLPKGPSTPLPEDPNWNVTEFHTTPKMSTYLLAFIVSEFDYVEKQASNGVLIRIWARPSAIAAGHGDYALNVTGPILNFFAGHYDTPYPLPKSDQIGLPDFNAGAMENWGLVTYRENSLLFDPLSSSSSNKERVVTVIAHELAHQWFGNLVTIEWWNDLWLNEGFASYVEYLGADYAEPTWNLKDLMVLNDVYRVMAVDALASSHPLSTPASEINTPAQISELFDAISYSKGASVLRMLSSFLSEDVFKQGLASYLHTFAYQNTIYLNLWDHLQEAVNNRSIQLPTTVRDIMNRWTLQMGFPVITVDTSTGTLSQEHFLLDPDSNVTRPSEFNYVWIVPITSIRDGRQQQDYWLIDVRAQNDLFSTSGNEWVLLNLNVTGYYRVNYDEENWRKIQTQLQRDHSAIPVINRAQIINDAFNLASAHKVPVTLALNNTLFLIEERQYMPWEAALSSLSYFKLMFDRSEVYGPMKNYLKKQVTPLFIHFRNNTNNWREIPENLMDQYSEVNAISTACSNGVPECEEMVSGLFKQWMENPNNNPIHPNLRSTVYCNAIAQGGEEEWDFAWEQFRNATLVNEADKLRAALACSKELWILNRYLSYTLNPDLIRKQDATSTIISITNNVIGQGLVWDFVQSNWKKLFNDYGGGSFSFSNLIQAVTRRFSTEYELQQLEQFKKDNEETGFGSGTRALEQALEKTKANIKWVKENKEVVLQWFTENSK

MDA-MB-231 = test: cells; details: Homo sapiens, MDA-MB-231, 48 h
Description: Cytotoxicity against human MDA-MB-231 cells after 48 hrs by MTT assay

Compound | IC50 [1] | IC50 (Aminopeptidase N [2]) | IC50 (Aminopeptidase N [4]) | IC50 (MDA-MB-231) | IC50 [3]
O=C(CN1C(=O)C2(OCCO2)c2cc(Br)ccc21)NO | > 100 µM | – | – | – | –
CC(C)C[C@H](NC(=O)CN1C(=O)C2(OCCO2)c2cc(Br)ccc21)C(=O)NO | – | 22.5 µM | – | – | –
CC[C@H](C)[C@H](NC(=O)CN1C(=O)C2(OCCO2)c2cc(Br)ccc21)C(=O)NO | – | 631 µM | – | – | –
O=C(CN1C(=O)C2(OCCO2)c2cc(Br)ccc21)NC(C(=O)NO)c1ccccc1 (stereo not drawn) | – | > 1000 µM | – | – | –
CC(C)[C@H](NC(=O)CN1C(=O)C2(OCCO2)c2cc(Br)ccc21)C(=O)NO | – | 226 µM | – | – | –
O=C(CN1C(=O)C2(OCCO2)c2cc(F)ccc21)NO | > 100 µM | 5.3 µM | 16.2 µM | 180 µM | 142 µM
O=C(CN1C(=O)C2(OCCO2)c2ccccc21)NO | – | 209 µM | – | – | –
O=C(CNC(=O)CN1C(=O)C2(OCCO2)c2cc(Br)ccc21)NO | 0.33 µM | 6.6 µM | – | – | –
O=C(CN1C(=O)C2(OCCO2)c2cc(Br)ccc21)N[C@@H](Cc1ccccc1)C(=O)NO | – | 26.4 µM | – | – | –
CC(C)C[C@H](NC(=O)[C@@H](O)[C@H](N)Cc1ccccc1)C(=O)O [UBENIMEX] | – | – | – | – | 632 µM

Further lines, with some results ahead:

IC50 [1] | IC50 (Aminopeptidase N [2]) | IC50 (Aminopeptidase N [4]) | IC50 (MDA-MB-231) | Compound | IC50 [3]
> 100 µM | 0.31 µM | 9.58 µM | 177 µM | O=C(CN1C(=O)C2(OCCO2)c2cc(Cl)ccc21)NO | 167 µM
– | 2.63 µM | – | – | Cc1ccc2c(c1)C1(OCCO1)C(=O)N2CC(=O)NO | –
> 100 µM | 1.3 µM | 10.9 µM | 259 µM | O=C(CN1C(=O)C2(OCCCO2)c2cc(Cl)ccc21)NO | 233 µM
> 100 µM | 6.71 µM | 97.5 µM | 576 µM | O=C(CN1C(=O)C2(OCCCO2)c2cc(F)ccc21)NO | 457 µM
> 100 µM | 3.4 µM | 19.7 µM | 55.1 µM | O=C(CN1C(=O)C2(OCCCO2)c2cc(Br)ccc21)NO | 137 µM
– | 266 µM | – | – | O=C(CN1C(=O)C2(OCCCO2)c2ccccc21)NO | –
– | 3.33 µM | – | – | Cc1ccc2c(c1)C1(OCCCO1)C(=O)N2CC(=O)NO | –
> 100 µM | 0.074 µM | 3.12 µM | 91.5 µM | O=C(CN1C(=O)C2(OCCCCO2)c2cc(Cl)ccc21)NO | 212 µM
> 100 µM | 4.06 µM | 15.2 µM | 114 µM | O=C(CN1C(=O)C2(OCCCCO2)c2cc(F)ccc21)NO | 553 µM
> 100 µM | 0.086 µM | 12.1 µM | 32.9 µM | O=C(CN1C(=O)C2(OCCCCO2)c2cc(Br)ccc21)NO | 409 µM
